In assay [1] the target is T1, CCR2 (Mus musculus, UniProt P51683).
T1 construct: tissue Jackson laboratory (mice); host or cells: whole animal: WT C57BL/6J mice; CCR2 on circulating classic monocytes / infiltrating macrophages
Nature of the assay: RS-504393 CCR2 blockade in early-phase TAC pressure overload hypertrophy. The class given is in vivo. Conditions: for cardiac macrophage populations / numbers: before and after 1-wk TAC, 2 mg/kg twice daily oral gavage, FACS (FIG. 7), 2 mg/kg. As for the experimental part: (§1) Macrophage depletion was achieved by injection (i.v.) of Clodronate liposomes at 500 ug/kg on every other day, starting from 1-day before or 14-day after cardiac surgery as indicated in specific experiments. PBS-containing liposomes were used as vehicle control (Veh). Clodronate liposomes and control liposomes were obtained from the nonprofit Consortium Foundation Clodronate Liposomes. To inhibit monocyte trafficking in vivo, RS-504393 was dissolved in DMSO, diluted 1:20 in PBS and administrated at 2 mg/kg twice daily by oral gavage, starting from 1-3 day before or 14-day after cardiac surgery as indicated in specific experiments. PBS with 5% DMSO was used as vehicle control.
Transverse aortic constriction (TAC) model and echocardiography were performed as described previously. Mice were anaesthetized by ketamine xylazine cocktail (100 uL i.p.) for TAC surgery to reduce aorta diameter to 27-gauge. Buprenorphine was administrated daily (i.p.) for first 5-days post-TAC. Blood pressure gradient across ligation site was confirmed by Doppler echography. For echocardiography, mice were anaesthetized by inhalation of 1% isoflurane vaporized in 100% oxygen. LV function was recorded at parasternal short axis view in B-mode and M-mode on a VEVO 770 High-Resolution In Vivo Micro-Imaging System (VisualSonics). ECHO data were recorded at steady heart rate above 500 bpm. LV function was calculated as ejection fraction (EF) or fractional shortening (FS).
Peritoneal macrophages were collected as described previously. Cardiac macrophages were gated from whole heart cells using surface antibodies (CD45+CD11b+F4/80+Ly6G-CD64+). Mouse heart is perfused, excised, minced, digested with Type I collagenase, mechanically disrupted and filtered through 70 μm cell strainer to get single cell suspension. Cells are collected by centrifugation, subjected to live-death dye and surface antibody staining, and analyzed by flow cytometry. Cells were also sorted by flow cytometry to collect cardiac macrophages. […] After RBC lysis, cells were stained with surface antibodies and analyzed by FACS. […]

In assay [2] the target is T1, CCR2. The experiment in a line: RS-504393 administration from day 14 post-TAC in established pressure overload hypertrophy. Type of assay: in vivo. Conditions: established POH. The protocol:
as §1
Transverse aortic constriction (TAC) model and echocardiography were performed as described previously. […] LV function was recorded at parasternal short axis view in B-mode and M-mode on a VEVO 770 High-Resolution In Vivo Micro-Imaging System (VisualSonics). ECHO data were recorded at steady heart rate above 500 bpm. LV function was calculated as ejection fraction (EF) or fractional shortening (FS).
Tissue samples were homogenized in QIAzol lysis reagent (Qiagen, 79306) with a TissueLyser (Qiagen). […] Quantitative real-time PCR (qPCR) was performed with either the TaqMan method (Roche Universal ProbeLibrary System) or the SYBR green method on a ViiA 7 Real-Time PCR System (Applied Biosystems). […]

Entries after “also recorded” stand apart in the source; their conditions may differ.

T1 sequence (P51683 whole entry): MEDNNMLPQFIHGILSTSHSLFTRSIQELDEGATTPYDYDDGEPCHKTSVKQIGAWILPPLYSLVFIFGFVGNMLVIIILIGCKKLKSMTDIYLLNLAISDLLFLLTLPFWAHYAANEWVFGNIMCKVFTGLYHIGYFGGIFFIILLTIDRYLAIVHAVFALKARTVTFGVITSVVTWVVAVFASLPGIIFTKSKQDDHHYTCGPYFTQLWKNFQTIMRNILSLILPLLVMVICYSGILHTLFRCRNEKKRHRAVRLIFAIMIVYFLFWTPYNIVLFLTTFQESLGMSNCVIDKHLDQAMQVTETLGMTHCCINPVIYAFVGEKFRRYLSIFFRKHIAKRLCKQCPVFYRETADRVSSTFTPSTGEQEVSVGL

On to `Cc1ccc2c(c1)C1(CCN(CCc3nc(-c4ccccc4)oc3C)CC1)OC(=O)N2` [RS-504393], for which the results for the “cardiac macrophage populations / numbers” value on CCR2 [1] and on CCR2 [1] (listed as RS) were “no effect” and “no impact”, respectively. For the same compound, the “cardiac function / POH” value at CCR2 [1] (before and after 1 wk post-TAC, echocardiography (FIG. 3A), listed as RS) is recorded as “no effect; also recorded: no impact”. Also, the cardiac hypertrophy result on CCR2 [2] (RS oral administration 2 wk after TAC (FIG. 16)) was “without affecting cardiac hypertrophy”. On CCR2 [2] (RS oral administration 2 wk after TAC, to 6-week post-TAC (FIG. 16)), the “cardiac function (LV function by echocardiography)” value is listed as “preserved cardiac function”.
